Target: nsp14 methyltransferase from SARS-CoV-2 (Severe acute respiratory syndrome coronavirus 2, UniProt P0DTD1)
Experiment: Nsp14 MTase activity inhibition in vitro (EchoMS assay)
Type: biochemical
Conditions: recombinant nsp14 protein expressed in E. coli; dose-response curve

Structure (SMILES) | IC50 [nM]
Cn1ncc(-c2ccccc2)c1CSC[C@H]1O[C@@H](n2ccc3c(N)ncnc32)[C@H](O)[C@@H]1O [Compound 60c, (2R,3R,4S,5S)-2-(4-Amino-7H-pyrrolo[2,3-d]pyrimidin-7-yl)-5-((((1-methyl-4-phenyl-1H-pyrazol-5-yl)methyl)thio)methyl)tetrahydrofuran-3,4-diol] | 30 to 100
Cc1noc(-c2ccccc2)c1CSC[C@H]1O[C@@H](n2ccc3c(N)ncnc32)[C@H](O)[C@@H]1O [Compound 47c, (2R,3R,4S,5S)-2-(4-Amino-7H-pyrrolo[2,3-d]pyrimidin-7-yl)-5-((((3-methyl-5-phenylisoxazol-4-yl)methyl)thio)methyl)tetrahydrofuran-3,4-diol] | 30 to 100
Cc1noc(-c2ccccc2)c1CSC[C@H]1O[C@@H](n2cc(-c3ccc(-c4ccccn4)cc3)c3c(N)ncnc32)[C@H](O)[C@@H]1O [Compound 188] | 30 to 100
Cc1noc(-c2cccc3ccccc23)c1CSC[C@H]1O[C@@H](n2ccc3c(N)ncnc32)[C@H](O)[C@@H]1O [Compound 100c, (2R,3R,4S,5S)-2-(4-Amino-7H-pyrrolo[2,3-d]pyrimidin-7-yl)-5-((((3-methyl-5-(naphthalen-1-yl)isoxazol-4-yl)methyl)thio)methyl)tetrahydrofuran-3,4-diol] | 10 to 30
Cc1noc(-c2ccccc2)c1CSC[C@H]1O[C@@H](n2cc(CCc3ccccc3)c3c(N)ncnc32)[C@H](O)[C@@H]1O [Compound 184, (2R,3R,4S,5S)-2-(4-Amino-5-phenethyl-7H-pyrrolo[2,3-d]pyrimidin-7-yl)-5-((((3-methyl-5-phenylisoxazol-4-yl)methyl)thio)methyl)tetrahydrofuran-3,4-diol] | 100 to 500
Cc1noc(-c2ccccc2)c1CSC[C@H]1O[C@@H](n2cc(SCc3ccccc3)c3c(N)ncnc32)[C@H](O)[C@@H]1O [Compound 190b, (2R,3R,4S,5S)-2-(4-Amino-5-(benzylthio)-7H-pyrrolo[2,3-d]pyrimidin-7-yl)-5-((((3-methyl-5-phenylisoxazol-4-yl)methyl)thio)methyl)tetrahydrofuran-3,4-diol] | 100 to 500
Nc1ncnc2c1ccn2[C@@H]1O[C@H](CSCc2cnsc2-c2ccccc2)[C@@H](O)[C@H]1O [Compound 103c, (2R,3R,4S,5S)-2-(4-Amino-7H-pyrrolo[2,3-d]pyrimidin-7-yl)-5-((((5-phenylisothlazol-4-yl)methyl)thio)methyl)tetrahydrofuran-3,4-diol] | 500 to 2000
Cc1ncnc(-c2ccc3c(c2)OCO3)c1CSC[C@H]1O[C@@H](n2ccc3c(N)ncnc32)[C@H](O)[C@@H]1O [Compound 102c, (2R,3R,4S,5S)-2-(4-Amino-7H-pyrrolo[2,3-d]pyrimidin-7-yl)-5-((((4-(benzo[d][1,3]dioxol-5-yl)-6-methylpyrimidin-5-yl)methyl)thio)methyl)tetrahydrofuran-3,4-diol] | 30 to 100
Cc1noc(-c2ccccc2)c1CSC[C@H]1O[C@@H](n2nc(CCCC#N)c3c(N)ncnc32)[C@H](O)[C@@H]1O [Compound 223b, 4-(4-Amino-1-((2R,3R,4S,5S)-3,4-dihydroxy-5-((((3-methyl-5-phenylisoxazol-4-yl)methyl)thio)methyl)tetrahydrofuran-2-yl)-1H-pyrazolo[3,4-d]pyrimidin-3-yl)butanenitrile] | 30 to 100
Cn1cnc(-c2ccccc2)c1CSC[C@H]1O[C@@H](n2cc(C#Cc3cncnc3)c3c(N)ncnc32)[C@H](O)[C@@H]1O [Compound 237c, (2R,3R,4S,5S)-2-(4-Amino-5-(pyrimidin-5-ylethynyl)-7H-pyrrolo[2,3-d]pyrimidin-7-yl)-5-((((1-methyl-4-phenyl-1H-imidazol-5-yl)methyl)thio)methyl)tetrahydrofuran-3,4-diol] | 30 to 100
Cc1noc(-c2ccc3c(c2)OCO3)c1CSC[C@H]1O[C@@H](n2nc(-c3ccc(CC#N)cc3)c3c(N)ncnc32)[C@H](O)[C@@H]1O [Compound 226, 2-(4-(4-Amino-1-((2R,3R,4S,5S)-5-((((5-(benzo[d][1,3]dioxol-5-yl)-3-methylisoxazol-4-yl)methyl)thio)methyl)-3,4-dihydroxytetrahydrofuran-2-yl)-1H-pyrazolo[3,4-d]pyrimidin-3-yl)phenyl)acetonitrile] | 10 to 30
Cc1noc(-c2ccccc2)c1CSC[C@H]1O[C@@H](n2nc(-c3cccc(C#N)c3)c3c(N)ncnc32)[C@H](O)[C@@H]1O [Compound 220b, 3-(4-Amino-1-((2R,3R,4S,5S)-3,4-dihydroxy-5-((((3-methyl-5-phenylisoxazol-4-yl)methyl)thio)methyl)tetrahydrofuran-2-yl)-1H-pyrazolo[3,4-d]pyrimidin-3-yl)benzonitrile] | 100 to 500
Cc1noc(-c2ccccc2)c1CSC[C@H]1O[C@@H](n2cc(-c3ccc(-c4cccnc4)cc3)c3c(N)ncnc32)[C@H](O)[C@@H]1O [Compound 187] | 30 to 100
Cc1noc(-c2ccccc2)c1CSC[C@H]1O[C@@H](n2cc(F)c3c(N)ncnc32)[C@H](O)[C@@H]1O [Compound 128, (2R,3R,4S,5S)-2-(4-Amino-5-fluoro-7H-pyrrolo[2,3-d]pyrimidin-7-yl)-5-((((3-methyl-5-phenylisoxazol-4-yl)methyl)thio)methyl)tetrahydrofuran-3,4-diol] | 100 to 500
Cc1noc(-c2ccc(N)cc2)c1CSC[C@H]1O[C@@H](n2cc(-c3ccc(C#N)cc3)c3c(N)ncnc32)[C@H](O)[C@@H]1O [Compound 234b, 4-(4-Amino-7-((2R,3R,4S,5S)-5-((((5-(4-aminophenyl)-3-methylisoxazol-4-yl)methyl)thio)methyl)-3,4-dihydroxytetrahydrofuran-2-yl)-7H-pyrrolo[2,3-d]pyrimidin-5-yl)benzonitrile] | 10 to 30
Cc1noc(-c2ccccc2)c1CSC[C@H]1O[C@@H](n2cc(C#Cc3cccnc3)c3c(N)ncnc32)[C@H](O)[C@@H]1O [Compound 170b, (2R,3R,4S,5S)-2-(4-Amino-5-(pyridin-3-ylethynyl)-7H-pyrrolo[2,3-d]pyrimidin-7-yl)-5-((((3-methyl-5-phenylisoxazol-4-yl)methyl)thio)methyl)tetrahydrofuran-3,4-diol] | 10 to 30
Cc1noc(-c2ccccc2)c1CSC[C@H]1O[C@@H](n2cc(-c3ccco3)c3c(N)ncnc32)[C@H](O)[C@@H]1O [Compound 153] | 30 to 100
Cc1onc(-c2ccccc2)c1CSC[C@H]1O[C@@H](n2ccc3c(N)ncnc32)[C@H](O)[C@@H]1O [Compound 48c, (2R,3R,4S,5S)-2-(4-Amino-7H-pyrrolo[2,3-d]pyrimidin-7-yl)-5-((((5-methyl-3-phenylisoxazol-4-yl)methyl)thio)methyl)tetrahydrofuran-3,4-diol] | 100 to 500
Cc1noc(-c2ccccc2)c1CSC[C@H]1O[C@@H](n2cc(CC(C)C)c3c(N)ncnc32)[C@H](O)[C@@H]1O [Compound 131b, (2R,3R,4S,5S)-2-(4-Amino-5-isobutyl-7H-pyrrolo[2,3-d]pyrimidin-7-yl)-5-((((3-methyl-5-phenylisoxazol-4-yl)methyl)thio)methyl)tetrahydrofuran-3,4-diol] | 100 to 500
Cc1noc(-c2ccccc2)c1CSC[C@H]1O[C@@H](n2ncc3c(N)ncnc32)[C@H](O)[C@@H]1O [Compound 213, (2R,3R,4S,5S)-2-(4-Amino-1H-pyrazolo[3,4-d]pyrimidin-1-yl)-5-((((3-methyl-5-phenylisoxazol-4-yl)methyl)thio)methyl)tetrahydrofuran-3,4-diol] | 30 to 100
Cc1noc(-c2ccc3c(c2)OCO3)c1CSC[C@H]1O[C@@H](n2cc(C#Cc3cncnc3)c3c(N)ncnc32)[C@H](O)[C@@H]1O [Compound 243c, (2R,3R,4S,5S)-2-(4-Amino-5-(pyrimidin-5-ylethynyl)-7H-pyrrolo[2,3-d]pyrimidin-7-yl)-5-((((5-(benzo[d][1,3]dioxol-5-yl)-3-methylisoxazol-4-yl)methyl)thio)methyl)tetrahydrofuran-3,4-diol] | 10 to 30
Cc1noc(-c2ccccc2)c1CSC[C@H]1O[C@@H](n2cc(C#Cc3cnc4ccccc4c3)c3c(N)ncnc32)[C@H](O)[C@@H]1O [Compound 176b, (2R,3R,4S,5S)-2-(4-Amino-5-(quinolin-3-ylethynyl)-7H-pyrrolo[2,3-d]pyrimidin-7-yl)-5-((((3-methyl-5-phenylisoxazol-4-yl)methyl)thio)methyl)tetrahydrofuran-3,4-diol] | 100 to 500
Cc1noc(-c2ccccc2)c1CSC[C@H]1O[C@@H](n2nc(-c3cccc(C(N)=O)c3)c3c(N)ncnc32)[C@H](O)[C@@H]1O [Compound 221b, 3-(4-Amino-1-((2R,3R,4S,5S)-3,4-dihydroxy-5-((((3-methyl-5-phenylisoxazol-4-yl)methyl)thio)methyl)tetrahydrofuran-2-yl)-1H-pyrazolo[3,4-d]pyrimidin-3-yl)benzamide] | 30 to 100
Cc1noc(-c2ccccc2)c1CSC[C@H]1O[C@@H](n2ccc3c(N)nc(F)nc32)[C@H](O)[C@@H]1O [Compound 198, (2R,3R,4S,5S)-2-(4-Amino-2-fluoro-7H-pyrrolo[2,3-d]pyrimidin-7-yl)-5-((((3-methyl-5-phenylisoxazol-4-yl)methyl)thio)methyl)tetrahydrofuran-3,4-diol] | 30 to 100
Cc1noc(-c2ccccc2)c1CSC[C@H]1O[C@@H](n2nc(-c3ccc(CC#N)cc3)c3c(N)ncnc32)[C@H](O)[C@@H]1O [Compound 222b, 2-(4-(4-Amino-1-((2R,3R,4S,5S)-3,4-dlhydroxy-5-((((3-methyl-5-phenylisoxazol-4-yl)methyl)thio)methyl)tetrahydrofuran-2-yl)-1H-pyrazolo[3,4-d]pyrimidin-3-yl)phenyl)acetonitrile] | 10 to 30
Cc1noc(-c2ccccc2)c1CSC[C@H]1O[C@@H](n2cc(C#Cc3nc4ccccc4[nH]3)c3c(N)ncnc32)[C@H](O)[C@@H]1O [Compound 179b, (2R,3R,4S,5S)-2-(5-((1H-Benzo[d]imidazol-2-yl)ethynyl)-4-amino-7H-pyrrolo[2,3-d]pyrimidin-7-yl)-5-((((3-methyl-5-phenylisoxazol-4-yl)methyl)thio)methyl)tetrahydrofiiran-3,4-diol] | 100 to 500
